The values that follow come from US20230272016A1, “PEPTIDES FOR IMMUNOTHERAPY” (Second Genome, Inc., priority 2020, published 2023).

Experiment [1] concerns Human monocyte-derived dendritic cells (moDCs). Briefly: moDC stimulation with low dose LPS and peptide, flow cytometry. The class given is cell-based. The settings on record: LPS 2 ng/mL with peptide 10 μM. On the procedure: Human monocyte-derived dendritic cells (moDCs) were stimulated with low dose lipopolysaccharide (LPS) (2 ng/mL) alone, LPS with peptides SG-3-00802 (10 μM) or SG-3-05021 (10 μM), and LPS (2 ng/mL) with IFNg (50 ng/mL) as a positive control. After stimulation of moDCs, flow cytometry was used to determine induction of the CSCR3 receptor.
Background: In flow cytometry, cells or beads pass a laser one at a time.

The subject of experiment [2] is immature monocyte-derived dendritic cells (moDCs) and allogeneic T cells. In words: moDC / allogeneic T cell co-culture cytokine secretion. Format: cell-based, human. The settings on record: after anti-CD40 pre-stimulation, peptide alone or in combination with anti PD1; 72 hours; >4 donor PBMCs. On the procedure:
In another study, immature monocyte-derived dendritic cells (moDCs) were pre-stimulated with anti-CD40 agonist antibody or the mouse IgG1 isotype control antibody. Twenty-four hours later, T cells isolated from allogeneic donors were added to the moDCs with the peptide of interest, SG-3-00802 or SG-3-05021, alone or in combination with […] monoclonal antibody. The co-culture of cells was incubated for 72 hours, after which cell supernatants were harvested and analyzed for secretion of cytokines, IFN-g and TNF-α. Both SG-3-00802 and SG-3-05021 induced an increase in IFN-γ and TNF-α after stimulation with anti-CD40 either alone or in combination with anti PD1 (FIGS. 26A-26B and 27A-27B). Data shown for experiment conducted in >4 Donor PBMCs.

The next experiment has as its system RENCA tumors. Briefly: RENCA murine adenocarcinoma syngeneic tumor model. The class given is in vivo, BALB/c mice. As to conditions: for survival time (days) / tumor volume: peptide 2.5 mg/kg daily peritumorally; for survival time (days): anti-PD-1 10 mg/kg i.p., compared to PBS or anti-PD-1 alone; for tumor volume: anti-PD-1 10 mg/kg intraperitoneal, compared to PBS treated control mice. On the procedure: To determine anti-tumor activity of SG-3-00802 in vivo, the RENCA murine adenocarcinoma model was used. It is a syngeneic, standardized experimental model of metastatic RCC. Briefly, BALB/c female mice were inoculated subcutaneously with RENCA cells. Established tumors were treated daily with 2.5 mg/kg SG-3-00802 peritumorally, alone or in combination with intraperitoneal administration of 10 mg/kg anti-PD-1 antibody. […] QD indicates administration of the peptide once a day. BID indicates administration of the peptide twice a day.
Balb/c female mice were implanted with RENCA cells in the left flank. When tumors were established and reach ˜100 mm^3 or 200 mm^3 mice were allocated into dosing groups. Each dosing group had 10-12 animals. Peptides were dosed peritumoral at 2.5 mg/kg BID for 7 d and anti-PD-1 was dosed intraperitoneally at 10 mg/kg TIW for a total of 3 doses. Mice were monitored for tumor growth and survival. Tumor volumes were measured twice a week. A survival event (censoring) was reached when tumor volume reached 1000 mm^3 and additional survival events were defined as animals that had to be euthanized due to ulceration.
Additional studies were performed to test survival and tumor volume responses to a re-challenge event. In one study, mice were allocated into dosing groups when tumors reached ˜100 mm^3. During the initial dosing study, time 0 was the first day of seven days of dosing. […] Re-implantation was completed on day 39 after dosing completion. Treated mice were tumor free for >20 days before being re-challenge. […] Tumor volume and survival was been monitored as previously described. In the re-challenge experiment, time 0 is day 10 after re-challenge dosing.
In the initial dosing experiment, tumor volumes were smaller in both the SG-3-00802 alone treatment and SG-3-00802 with anti-PD-1 antibody combinatorial treatment 40 days after dosing started (FIGS. 32A-32B).
In another re-challenge study, mice were instead allocated into dosing groups when tumors reached ˜200 mm^3. The same procedure as described above was used, except where indicated. […] Re-implantation was completed on day 37 after dosing completion, and time 0 is day 12 post re-challenge. […] In the initial dosing experiment, tumor volumes were smaller in both the SG-3-00802 alone treatment and SG-3-00802 with anti-PD-1 antibody combinatorial treatment 15 days after dosing started (FIGS. 35A-35B).
To determine anti-tumor activity of SG-3-00802 in vivo, the RENCA murine adenocarcinoma model was used. Briefly, BALB/c female mice were inoculated subcutaneously with RENCA cells. Established tumors were treated daily with 2.5 mg/kg SG-3-00802 peritumorally, alone or in combination with intraperitoneal administration of 10 mg/kg anti-PD-1 antibody. […]

As for “MKVRPSVKPMCEKCKIIRRKGRVMVICENPKHKQRQG [SG-3-00802, peptide from oscillibacter.sp t_155102]”, in experiment [1], the CXCR3 receptor internalization entry was “did not induce CXCR3 receptor internalization” and the DC-SIGN expression entry is reported as “down-regulate DC-SIGN”. Also, in experiment [2], the IFN-γ secretion entry is “increase” and the TNF-α secretion entry is reported as “increase”. In the experiment on RENCA tumors (QD or BID administration of the peptide), the “volume of syngeneic RENCA tumors, dose dependence” value was “dose-dependent manner”. Also, in the experiment on RENCA tumors (Table 16, ~100 mm^3 study), the “# of animals with complete tumor regression out of total animals per group (primary study)” value is 2/12 and the “# of animals without tumor progression out of re-challenged animals per group (re-challenge study)” value is 2/2. Further, the “# of animals with complete tumor regression out of total animals per group (primary study)” value in the experiment on RENCA tumors (Table 17, ~200 mm^3 study) is 0/10. In the experiment with RENCA tumors (dosing groups allocated at tumors ~100 mm^3), the “survival, initial dosing” value is recorded as “increased survival”. The “survival, initial dosing” value in the experiment on RENCA tumors (dosing groups allocated at tumors ~200 mm^3) is listed as “increased survival”. Further, in the experiment with RENCA tumors, the “survival time (days)” value is given as “survived a longer time” and the tumor volume result is on record as “robust decrease”. Further, the “tumor volumes, initial dosing experiment” value in the experiment on RENCA tumors (~100 mm^3 study, 40 days after dosing started) was “smaller”. Besides, the “percent of mice surviving after re-challenge” value in the experiment on RENCA tumors (~100 mm^3 study, re-implantation on day 39 after dosing completion, opposite flank) was “increased percent of mice surviving”. In addition, the “tumor volumes after re-challenge” value in the experiment with RENCA tumors (~100 mm^3 study, vs PBS-treated control mice) is “remained smaller than PBS-treated control mice”. In the experiment on RENCA tumors (~200 mm^3 study, 15 days after dosing started), the “tumor volumes, initial dosing experiment” value is “smaller”.

As for “LGKTDWIEKYFKVKKEKIDKMQRFLQG [SG-3-05021, peptide from bacteroides.clarus.dsm.22519]”, in experiment [1], the CXCR3 receptor internalization entry is reported as “did not induce CXCR3 receptor internalization” and the DC-SIGN expression result is on record as “down-regulate DC-SIGN”. Moreover, in experiment [2], the IFN-γ secretion result was “increase” and the TNF-α secretion entry is given as “increase”. Further, in the experiment on RENCA tumors, the “survival time (days)” value is on record as “survived a longer time” and the tumor volume result was “decrease in tumor volume”.
